Source: patent US9173898B2, “Methods of treating giardiasis” (THE UNITED STATES OF AMERICA, as represented by the …, priority 2010, dated 2015)
Converted amounts (≈) assume the structure as drawn. Where two headings read alike, the source gives them in different places.

What was measured:
Giardia WB = assay: Giardia viability (ATP content) assay in 1536-well format; format: cell-based, Giardia lamblia; conditions: for Emax: 48 h, read-out: Giardia WB Efficacy; for Emax / Giardia WB Efficacy: percent reduction in ATP levels compared with 38.3 mM Mnz at maximal compound concentration; for IC50: concentration at which 50% of DMSO control ATP levels are detected, 48 hours, 1536-well; for EC50: 1536-well (FIG. 2a), read-out: Calculated EC50
Procedure: (§1) For the viability assay in 1536-well format, 2 μL media was dispensed per well into 1536-well white solid-bottom plates using a Multidrop Combi dispenser (Thermo Scientific). Subsequently, 23 nL/well compound solutions or DMSO controls were dispensed to the assay plates containing media via a pintool workstation (Kalypsys, San Diego). Trophozoites were chilled on ice to detach from glass tubes, and unless otherwise noted, were diluted to 250,000 trophozoites/mL with ice cold media. The trophozoite suspension was kept on ice and dispensed as 4 μL/well with the Multidrop Combi dispenser. Attachment of trophozoites to dispensing apparatus was avoided with continuous dispensing and icing of the trophozoite suspension. The plates were covered with plastic low-evaporation lids, individually sealed in Type A Bio-Bags and incubated at 37° C. for 48 hours. Following incubation, 4 μL/well of ATPLite reagent was dispensed with the Multidrop Combi dispenser. The assay plates were briefly centrifuged at 1000 RPM and luminescence signal was detected on a ViewLux plate reader (PerkinElmer) after 20 min incubation at room temperature. Signal-to-basal (S/B) ratio, Z′ factor and coefficient of variation (CV) were calculated from 32 wells with 0.38% DMSO (total signal) and 32 well with 38.3 μM Mnz (basal signal).
Assay miniaturization in 1,536-well plate format was undertaken to increase throughput and facilitate screening of large compound libraries. The volume of trophozoites suspension was reduced to 6 μL/well and the ATP detection reagent was reduced to 4 μL/well in the 1536-well assay plates. […] The 100 trophozoites/well density was selected for further experiments to reduce the preparation work of Giardia cultures. Following these conditions, a DMSO test plate was used to assess the statistical parameters of the assay in the 1,536-well plate format.
Using the above established conditions in 1536-well format, each compound of the invention was tested at 5 concentration points, ranging from 61 nM-38.3 μM in a 1:5 dilution ratio (Inglese, J., D. S. Auld, A. Jadhav, R. L. Johnson, A. Simeonov, A. Yasgar, W. Zheng, and C. P. Austin. 2006. Quantitative high-throughput screening: a titration-based approach that efficiently identifies biological activities in large chemical libraries. Proc Natl Acad Sci USA 103:11473-8).

CHO cells [1] = assay: CHO cell cytotoxicity assay in 1536-well format (ATP content counter-screen); format: cell-based, Chinese hamster; conditions: concentration at which 50% of DMSO control ATP levels are detected, 48 hours
Procedure: For the viability assay in 1536-well format, 2 μL media was dispensed per well into 1536-well white solid-bottom plates using Multidrop Combi dispenser. Subsequently, 23 nL/well compound solutions or DMSO controls were dispensed to the assay plates via a pintool workstation. The Chinese hamster ovary (CHO) cells were grown in T225 flasks to 70% confluence under a standard cell culture condition (ATCC), detached with 0.25% Trypsin/EDTA, and seeded at 250 cells/well in 4 μL media (Dulbecco's Modified Eagle Medium, 10% fetal bovine serum, 1× penicillin/streptomycin). The plates were incubated at 37° C. with 5% CO2 and 95% humidity for 48 hours. Subsequently, ATP content was measured following the addition of 4 μL/well of ATPLite reagent and a 20 min incubation on a ViewLux plate reader.
Data from the CHO cell counter-screen underwent the same initial analysis, with the exception that raw luminescence counts were normalized relative to DMSO only wells (0% activity) and 38.3 μM camptothecin treated wells (100% activity).
CHO cells, commonly used in high throughput compound screening, were selected to determine the cytotoxicity of the compounds towards a mammalian cell line.

G. lamblia GS isolate = assay: ATP content assay against G. lamblia GS isolate; format: cell-based, Giardia lamblia
Procedure: as §1
As a further confirmatory step, some compounds that were commercially available were purchased as powder samples and tested against the G. lamblia GS isolate using both the ATP content and enumeration assays (Table 3).

[2] = tested on: Giardia lamblia GS isolate; assay: Trophozoite enumeration assay; format: cell-based; conditions: G. lamblia GS isolate, 48 hrs, cell counting in hemocytometer
Procedure: Giardia lamblia GS isolate was plated into sterile 96-well black clear-bottom assay plates at 10,000 cells/well density and 120 μL/well volume in culture media. Compounds tested were prepared as 50 mM DMSO solutions in a 12 point 1:3 titration series in DMSO, with exceptions being carbadox, Bortezomib and BTO-1, which were used at 10 mM top concentration due to solubility limitations. Compound titration series were added to duplicate assay wells as 0.5 μL/well and the assay plates were incubated anaerobically in Type A Bio-Bag (BD Diagnostics) for 48 hrs at 37° C. Cell density was visually scored in each well and the 6 wells surrounding the visually determined IC50 concentrations were quantitated by cell counting. For enumeration, trophozoites were detached on ice for 30 min and resuspended via pipetting. 75 μL of culture was removed from each well, mixed with 65 μL of 0.4% Trypan Blue and 10 μL of 30% bleach (final concentration of 2% bleach) to immobilize trophozoites. Trophozoites were then counted in a hemocytometer.

[3] = tested on: Giardia lamblia GS isolate; assay: Minimum Lethal Concentration (MLC) determination; format: cell-based; conditions: 3 days with compound, then 3 days regrowth without compound, tube without any live organisms
Procedure: Giardia lamblia GS isolate was used throughout the Minimal Lethal Concentration (MLC) experiments. Organisms were grown and maintained in TYI-S-33 medium supplemented with bile and antibiotics (Keister, 1983). Cidal activity was determined in 96-well culture plates (Corning Incorporated) followed by Giardia trophozoites regrowth in 8 ml tubes (Fisher Scientific). Dry compounds were dissolved in DMSO (Sigma) at stock concentration of 10 mM and then added to the growth media to ensure final DMSO concentration of no more than 0.5%. 100 μl of the compound solutions were placed in the wells by serial dilutions. 10 μl of Giardia trophozoites containing 10000 organisms were then added. Serial dilutions of metronidazole served as the positive control and the DMSO-containing medium served as the negative control. Plates were incubated under anaerobic conditions in sealed bags (Becton Dickinson and Company) at 37° C. for 3 days and surveyed visually under microscope to check survival, mobility and attachment of trophozoites. The plate was chilled on ice for 30 min and the entire contents of 4 wells in the growth/death transition were transferred into the 8 ml tubes containing growth media only (without the compound). After 3 days of incubation at 37° C., tubes were checked under microscope for any surviving trophozoites. MLC was attributed to the tube without any live organisms. See, e.g., Keister, D. B. 1983. Axenic culture of Giardia lamblia in TYI-S-33 medium supplemented with bile. Trans. Soc. Trop. Med. Hyg. 77:487-488.

CHO cells [4] = assay: CHO cell cytotoxicity assay in 1536-well format (ATP content counter-screen); format: cell-based, Chinese hamster; conditions: for Emax: Cricetulus griseus, CHO, 48 h, percent reduction in ATP levels compared with 38.3 µM camptothecin at maximal compound concentration, read-out: CHO Efficacy; for CHO Efficacy: percent reduction in ATP levels compared with 38.3 mM camptothecin at maximal compound concentration
[5] = tested on: G. lamblia WB trophozoite; assay: Giardia viability (ATP content) assay in 96-well format; format: cell-based, Giardia lamblia
Procedure: Giardia trophozoites were plated at a density of 2500 cells/well in 120 μL media in sterile 96-well black clear-bottom assay plates. Mnz was serially diluted from 100 mM stock solution 1:4 in DMSO and then 0.5 μL/well of Mnz titrations or DMSO control were transferred in duplicates to the assay wells using a multichannel pipette. The assay plates were covered with plastic low-evaporation lids and individually sealed with anaerobic generators (Type A Bio-Bag, BD Diagnostics) to create anaerobic growth environment. The sealed Bio-Bags were incubated at 37° C. for indicated periods. Following incubation, 80 μL/well of the ATPLite reagent (PerkinElmer) was added to the assay plates for one-step lysis and ATP level detection. The plates were centrifuged briefly (1000 RPM, 30 seconds) and incubated at room temperature for 20 min. The luminescent signals of assay plates were measured on a ViewLux plate reader (PerkinElmer). Signal-to-basal (S/B) ratios and Z′ factors were calculated from 8 wells containing 0.42% DMSO (total signal) and 8 wells containing 41.7 μM Mnz (basal signal).
A commercially available ATP detection kit to measure the viability of G. lamblia after compound treatment. […] The DMSO tolerance of trophozoites was assessed in this assay as DMSO is used to dissolve the compounds in the library. […]

[6] = G. lamblia GS isolate, purchased powder samples
[7] = Giardia duodenalis, G. lamblia GS isolate, purchased powder samples, read-out: ATP Content IC50
[8] = Giardia duodenalis, Table 2, screen, read-out: Giardia GS IC50
[9] = G. lamblia GS isolate, purchased powder samples, read-out: ATP Content IC50

Compound	Emax (Giardia WB; Giardia) [%]	IC50 (Giardia WB; Giardia) [nM]	IC50 (CHO cells [1]; Cricetulus griseus, CHO) [nM]	ATP Content Efficacy (G. lamblia GS isolate; [6]) [%]	IC50 (G. lamblia GS isolate; [7]) [nM]	IC50 (G. lamblia GS isolate; [8]) [nM]	IC50 ([2]; Giardia duodenalis) [nM]	MBC ([3]; Giardia duodenalis, 72 h) [µM]	Emax (CHO cells [4]) [%]	IC50 (Giardia WB) [nM]	Giardia WB Efficacy (Giardia WB) [%]	IC50 (CHO cells [1]) [nM]	IC50 (G. lamblia GS isolate; [9]) [nM]	IC50 [2] [nM]	CHO Efficacy (CHO cells [4]) [%]	other results
CO[C@@H]1[C@H](OC(=O)/C=C/C=C/C=C/C=C/C(=O)O)CC[C@]2(CO2)[C@H]1[C@@]1(C)O[C@@H]1CC=C(C)C [Fumagillin]	83.4	10	> 100000	98.9	2	2	3	0.257 (≈ 0.118 µg/mL)	-1.9	–	–	–	–	–	–	–
COC(=O)N/N=C/c1c[n+]([O-])c2ccccc2[n+]1[O-] [Carbadox]	86.6	5460	> 100000	99.4	240	2830	290	4.6 (≈ 1.21 µg/mL)	6.3	–	–	–	–	–	–	–
O=C(Nc1ccccc1)c1cc([N+](=O)[O-])ccc1Cl [GW9662]	86.4	6870	> 100000	99.2	12700	–	32900	208 (≈ 57.5 µg/mL)	8.5	–	–	–	–	–	–	–
Nc1ncn([C@H]2C[C@H](O)[C@@H](CO)O2)c(=O)n1 [Decitabine, 5-Aza-2′-deoxycytidine]	81.2	970	24400	95.1	150	100	70	2.6 (≈ 0.593 µg/mL)	-52.2	–	–	–	–	–	–	–
Cc1ncc([N+](=O)[O-])n1CCO [Metronidazole]	–	–	–	99.7	1600	–	2200	7.7 (≈ 1.32 µg/mL)	–	–	–	–	–	–	–	ATP content relative to DMSO control values ([5]; 41.7 μM Mnz treatment, all time points tested (FIG. 1a)): < 5%; IC50 ([5]; Giardia duodenalis, 96-well format, 48 hr (FIG. 1c), read-out: IC50 of inhibition of the ATP content signal): 2100 nM; EC50 (Giardia WB; Giardia, 100 cells/well Giardia density): 2900 nM; EC50 (Giardia WB; Giardia, 200 cells/well Giardia density): 2900 nM; EC50 (Giardia WB; Giardia, 300 cells/well Giardia density): 2100 nM
N#Cc1cc([N+](=O)[O-])c2sc(C(N)=O)[n+]([O-])c2c1 [BTO-1]	–	–	–	99.1	–	–	–	–	–	1730	72.3	68800	2000	9300	32.2	–
O=[N+]([O-])c1ccc([As](=O)(O)O)cc1 [Nitarsone]	–	–	–	99.6	–	–	–	–	–	430	97.0	> 100000	900	1200	−13.5	IC50 (G. lamblia GS isolate; Table 2, screen, read-out: Giardia GS IC50): 1260 nM; MBC [3]: 2.6 µM
CC(C)C[C@H](NC(=O)[C@H](Cc1ccccc1)NC(=O)c1cnccn1)B(O)O [Bortezomib]	–	–	–	98.5	60	–	130	0.51 (≈ 0.196 µg/mL)	–	–	–	–	–	–	–	–
hydroxocobalamin acetate [Hydroxocobalam in Acetate]	–	–	–	98.4	–	–	–	–	–	13700	92.2	> 100000	78300	54200	16.1	MBC [3]: >208 µM
